Tests used:
Assay in all cases: relative viability (nuclei count vs DMSO), 5 days (fraction); higher = more cells survive
RU-SKI 43 + Trametinib = compound: CC[C@@H](C)CNCC(=O)N1CCC2=C([C@@H]1COC3=CC=CC(=C3)C)C=CS2 [RU-SKI 43] + CC(=O)Nc1cccc(-n2c(=O)n(C3CC3)c(=O)c3c(Nc4ccc(I)cc4F)n(C)c(=O)c(C)c32)c1 [Trametinib] (partner 0.02 µM)
Procedure, shortened: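 Lung cancer cell lines, seeded in 1536-well plates, were treated the following day by pin tool with a single drug or with five library-drug doses (not always all listed) in √10 steps on top of a fixed anchor-drug dose. Cells were fixed and nuclei stained in one step after 5 days, and nuclei were counted. Relative viability is the nuclei count for treated wells divided by that for vehicle wells, reported as medians of duplicate plates.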

RU-SKI 43 = compound: CC[C@@H](C)CNCC(=O)N1CCC2=C([C@@H]1COC3=CC=CC(=C3)C)C=CS2 [RU-SKI 43]
Procedure, shortened: (§1)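 Cells of lung cancer lines were placed in 1536-well plates and kept overnight at 37 °C. Pinning then delivered five library-drug doses (not always all listed), spaced by √10, onto plates anchored with vehicle, and the cells were left 5 days without changing medium. One step fixed, permeabilised and stained them with Hoechst, and MetaXpress counted nuclei in 4× images. Viability, as a median over plates, is treated-well nuclei divided by vehicle-well nuclei, with acceptance only at control CV below 25% and at least one doubling.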

Irinotecan = compound: CCc1c2c(nc3ccc(OC(=O)N4CCC(N5CCCCC5)CC4)cc13)-c1cc3c(c(=O)n1C2)COC(=O)[C@]3(O)CC [Irinotecan]
Procedure, shortened: as §1

MK-8033 = compound: Cn1cc(-c2cnc3ccc4ccc(CS(=O)(=O)NCc5ccccn5)cc4c(=O)c3c2)cn1 [MK-8033]
Procedure, shortened: as §1

Cell Line	relative viability (RU-SKI 43 + Trametinib; first compound 0.1 µM)	relative viability (RU-SKI 43 + Trametinib; first compound 0.3162 µM)	relative viability (RU-SKI 43 + Trametinib; first compound 1 µM)	relative viability (RU-SKI 43 + Trametinib; first compound 3.162 µM)	relative viability (RU-SKI 43 + Trametinib; first compound 10 µM)	relative viability (RU-SKI 43; 0.1 µM)	relative viability (RU-SKI 43; 0.3162 µM)	relative viability (RU-SKI 43; 1 µM)	relative viability (RU-SKI 43; 3.162 µM)	relative viability (RU-SKI 43; 10 µM)	relative viability (Irinotecan; 2 µM)	relative viability (Irinotecan; 6.325 µM)	relative viability (Irinotecan; 20 µM)	relative viability (MK-8033; 0.02 µM)	relative viability (MK-8033; 0.06325 µM)	relative viability (MK-8033; 0.2 µM)	relative viability (MK-8033; 0.6325 µM)	relative viability (MK-8033; 2 µM)	relative viability (Irinotecan; 0.6325 µM)
NCI-H1395	1.06	1.2	1.23	0.98	0.981	0.978	0.928	1.05	0.899	0.885	0.9	0.504	0.411	0.941	0.77	0.812	0.906	0.867	
ABC-1						1.06	0.985	1.33	0.984	0.85	0.956	0.496	0.21	0.972	0.861	0.886	0.965	1.04	
NCI-H2023	0.585	0.643	0.547	0.685	0.528	1.06	1.47	1.11	1.1	0.905	0.829	0.217	0.0696	0.941	0.88	0.838	0.846	0.715	0.881
PC-14	0.637	0.824	0.82	0.652	0.533	1.01	1.15	1.2	1.01	0.953	0.876	0.29	0.185	1.01	0.83	0.888	0.95	0.938	0.72
ChaGo-K-1	0.921	1.01	0.899	0.941	0.906	1.02	1.02	1.1	0.988	0.946	0.7	0.295	0.261	1.03	0.907	0.941	1.01	0.873	0.759
NCI-H650	0.905	0.931		1.05	0.96	0.968	0.9	1.13	0.758	1.05	0.794	0.259	0.241	0.985	0.977	1.06	0.954	0.906	0.648
EBC-1						0.863	1.13	1.1	0.989	0.635	0.44	0.345	0.179	0.973	0.943	0.965	0.928	0.386	0.618
NCI-H2228	0.37	0.55	0.466	0.396	0.306	0.937	1.27	1.31	1.01	0.601	0.868	0.484	0.409	1.03	0.839	0.878	1.06	0.89	0.706
NCI-H1703						0.82	1.23	0.854	0.972	0.52	1.32	0.613	0.205	0.896	0.85	0.825	0.911	0.855	0.761
201T	0.709	0.717	0.776	0.789	0.749	1.03	0.973	1.08	1.05	0.981	0.996	0.467	0.33	0.967	0.974	0.9	0.976	0.963	
NCI-H1915	0.296	0.34	0.311	0.288	0.265	1.06	1.11	1.08	1	1.02	0.475	0.224	0.214	1	0.916	0.963	1.02	0.959	0.353
NCI-H358	0.125	0.138	0.181	0.139	0.124	0.94	1.19	0.922	0.97	0.898	0.66	0.323	0.169	0.961	0.751	0.917	0.958	0.806	0.744
NCI-H2347	0.293	0.275	0.388	0.289	0.302	0.978	1.09	1.1	0.97	0.967	0.83	0.483	0.495	1.02	1.02	0.984	1.03	1.04	0.789
H3255	0.664	0.682	0.625	0.578	0.588	1.02	0.995	1.11	0.995	0.885	0.684	0.392	0.379	1.06	0.853	0.942	0.794	0.942	0.743
NCI-H2009	0.28	0.295	0.291	0.313	0.244	1.02	1.07	1.07	1.06	1.01	0.733	0.272	0.153	1.05	1.01	0.953	0.945	0.961	0.716
A549						1	1.12	1.13	0.939	0.9	0.78	0.2	0.0915	0.996	0.932	0.93	0.913	0.943	0.943
NCI-H1563						0.965	0.928	0.966	1.06	0.852	1.01	0.974	0.601	0.975	0.918	0.927	0.988	0.98	1.02
NCI-H1623						1.02	0.958	1.03	1.06	0.883	0.703	0.275	0.297	0.87	0.96	0.839	0.992	1.02	0.866
IA-LM						1.1	1.02	1.15	1.07	0.98	0.419	0.208	0.0921	0.886	0.933	0.933	0.93	0.952	0.616
